These results are taken from US9650399B2, “Salicylic acid derivatives, pharmaceutically acceptable salt thereof, composition thereof and method of use thereof” (The Governing Council of the University of Toronto, priority 2012, dated 2017).

A word on the IC50: it is the concentration that gives 50% inhibition.

One data set has as its system BTSC68EF. In words: alamarBlue cell viability, BTSC 68EF. It counts as cell-based, human. The settings on record: Homo sapiens, read-out: 68EF IC50 (μM). In short, it runs like this:
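Patient-derived GBM brain tumour stem cells, dissociated spheres seeded at 1500 cells/96-well, or 3000 cells/96-well in one setup. Drug or DMSO vehicle added one day after plating. Viability read by alamarBlue after 72 hrs, triplicate wells.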
(Resazurin is reduced to fluorescent resorufin, in cell work by metabolically active cells.)

A further data set deals with 147EF. In words: alamarBlue cell viability, BTSC 147EF. It counts as cell-based, human. The settings on record: Homo sapiens, Table 4 library screen. An outline of the steps:
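Glioma stem-cell spheres were dissociated to single cells and plated at 1500 cells/well (3000 cells/well in the repeat set). Serial dilutions were added one day after plating: 5 μM–100 nM in the first set, 25 μM–10 nM in the second. Viability was read by alamarBlue three days later, in triplicate.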

Another data set concerns BTSCs. In words: alamarBlue cytotoxicity across BTSC lines. It is filed as cell-based, human. The settings on record: Homo sapiens; for EC50: read-out: EC50s across all 8 BTSCs evaluated; for IC50: read-out: IC50 values of the top four ranked compounds against BTSCs. On the procedure: First, the library was screened for biological activity against a set of three representative GBM BTSCs derived from GBM patients, including the very aggressive GBM BTSC lines, BTSC73M, BTSC30M, BTSC68EF. Dissociated BTSC spheres were seeded at 1500 cells/96-well and treated with drug compound or vehicle (DMSO) one day after plating. Cell viability following drug treatment was assessed after 72 hrs using the ALAMARBLUE™ assay (Invitrogen) according to the manufacturer's instructions. All culture experiments were performed in triplicate with a minimum of three wells per condition.
BTSC spheres were dissociated to single cells with the enzyme Accumax (Innovative Technologies), seeded at 1500 cells/96-well and treated with drug or vehicle (DMSO) one day after plating. […] BTSC spheres were dissociated to single cells as above and plated in 96 well plates in triplicate at 3000 cells/96-well. […] Cell viability following drug treatment was assessed three days later using the ALAMARBLUE™ assay (Invitrogen) according to the manufacturer's instructions. All culture experiments were performed in triplicate with a minimum of three wells per condition.

In data set [1] the test system is normal human fetal astrocytes (HF 2003, HF 2006, HF 2009, HF 2013). Description: toxicity in normal human fetal astrocytes. It is filed as cell-based. The settings on record: concentrations of up to 5 μM. Here is the method:
Given the nM cytoxicity, these compounds were assayed for biological effects in healthy cells.
GBM BTSCs were cultured from a series of tumor specimens obtained following informed consent from adult GBM patients during their operative procedure as previously described (Kelly et al, Stem Cells 2009) and approved by the University of Calgary Ethics Review Board. Briefly, BTSC cultures were initiated in serum-free defined culture medium (SFM) and gave rise to nonadherent spheres after 7 to 21 days in culture. Primary tumor spheres were expanded for several passages and then cryopreserved in 10% DMSO (Sigma Aldrich) in serum-free defined medium until use in experiments. Human fetal neural stem cells were also cultured as previously described and induced to differentiate into astrocytes by addition of 10% fetal bovine serum and removal of EGF, FGF-2 and heparan sulfate.

Another data set relates to pSTAT3 (Y705). In words: Western blot of phosphorylated STAT3 in BTSCs. It is filed as cell-based, human. The settings on record: for suppression of pSTAT3 (Y705): 1 μM. An excerpt: Blots were stained with antibodies: phospho-Y705, phospho-S727, Bcl-xL, cyclin D1, PARP and Actin. Bands were visualized with the ECL PLUS™ Western Blotting Detection System and […]™ (Amersham). […] BTSC spheres were lysed in modified RIPA buffer supplemented with Complete Mini protease (Roche) and Halt phosphatase (Thermo Scientific) inhibitor cocktails. […] Blots were stained with the following antibodies: phospho-STAT3 Y705 (1:1000, Cell Signalling Technology), phospho-STAT3 S727 (1:1000, Cell Signalling Technology), STAT3 (1:1000, Santa Cruz Biotechnology), Bcl-xL (1:1000, Cell Signalling Technology), cyclin D1 (1:1000, Cell Signalling Technology) PARP (1:1000, Cell Signalling Technology) and Actin (1:2500, Santa Cruz Biotechnology). HRP conjugated secondary antibodies, goat anti-rabbit (Cell Signalling Technology) were used at 1:2000 and donkey anti-mouse, donkey anti-goat, and goat anti-rabbit, (Calbiochem) were used at 1:6000. Bands were visualized with the ECL Plus Western Blotting Detection System and Hyperfilm (Amersham).
On the technique in general: Immunoblotting shows a protein as a band on a membrane.

Another data set deals with T1, AKT1 (Homo sapiens, UniProt P31749).
T1 construct: purchased Reaction Biology Corporation
T1 sequence (P31749 whole entry): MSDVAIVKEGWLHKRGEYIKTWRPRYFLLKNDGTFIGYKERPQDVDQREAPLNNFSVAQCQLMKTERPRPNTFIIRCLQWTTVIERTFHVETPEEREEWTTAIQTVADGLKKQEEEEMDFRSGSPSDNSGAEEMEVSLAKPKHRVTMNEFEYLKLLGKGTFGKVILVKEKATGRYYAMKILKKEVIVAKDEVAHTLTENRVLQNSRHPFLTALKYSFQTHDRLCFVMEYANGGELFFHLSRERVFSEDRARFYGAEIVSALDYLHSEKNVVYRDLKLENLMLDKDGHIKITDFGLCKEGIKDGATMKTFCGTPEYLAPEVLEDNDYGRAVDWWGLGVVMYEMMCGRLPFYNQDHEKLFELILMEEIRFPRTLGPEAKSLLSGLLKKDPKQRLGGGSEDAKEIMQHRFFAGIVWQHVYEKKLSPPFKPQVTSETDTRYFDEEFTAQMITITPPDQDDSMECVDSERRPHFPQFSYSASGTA
Description: HotSpot radiometric kinase assay, AKT1. It is filed as biochemical. The settings on record: 5 uM compound, 10 μM ATP, duplicate (Data 1, Data 2); for remaining activity at 5 µM: read-out: % Enzyme activity relative to DMSO (control), AKT1.

The next data set concerns the target T2, ERK1 (Homo sapiens, UniProt P27361).
T2 construct: purchased Reaction Biology Corporation
Description: HotSpot radiometric kinase assay, ERK1. It counts as biochemical. The settings on record: 5 uM compound, 10 μM ATP, duplicate (Data 1, Data 2); for remaining activity at 5 µM: read-out: % Enzyme activity relative to DMSO (control), ERK1.

The next data set concerns the target T3, JAK2 (Homo sapiens, UniProt O60674).
T3 construct: purchased Reaction Biology Corporation
In words: HotSpot radiometric kinase assay, JAK2. It is filed as biochemical. The settings on record: 5 uM compound, 10 μM ATP, duplicate (Data 1, Data 2); for remaining activity at 5 µM: read-out: % Enzyme activity relative to DMSO (control), JAK2. On the procedure:
Briefly, this assay employs a radiometric detection system to measure kinase phosphoryl transfer activity.
Test compound was evaluated at a single dose of 5 μM in duplicate mode. […] Reactions were carried out at 10 μM ATP.
Preliminary screen against AKT, c-Src, ERK1, JaK1 and JaK2 was performed at Reaction Biology Corporation (www.reactionbiology.com, Malvern, Pa.) using the “HotSpot” assay platform. Specific kinase/substrate pairs along with their required cofactors were prepared in reaction buffer; 20 mM Hepes pH 7.5, 10 mM MgCl2, 1 mM EGTA, 0.02% Brij35, 0.02 mg/ml BSA, 0.1 mM Na3VO4, 2 mM DTT, 1% DMSO. The screen was completed in duplicate at a single concentration of 5 μM. The reaction well with the subject compound was treated with a mixture of ATP (Sigma, St. Louis Mo.) and ^33P ATP (Perkin Elmer, Waltham Mass.) to a final concentration of 10 μM. […] Reaction wells were kept at room temperature for 120 minutes, followed by spotting each of the reactions onto P81 ion exchange filter paper (Whatman Inc., Piscataway, N.J.). […] Background was subtracted using control reactions and the kinase activity data was expressed as the percent remaining kinase activity in test samples compared to vehicle (dimethyl sulfoxide) reactions. All IC50 values (table 3) and curve fitting were produced using Prism (GraphPad Software) (FIG. 5).

Data set [2] concerns Breast cancer cells (MDA-MB-468). In words: IC50 in breast cancer cells. It counts as cell-based. The settings on record: Homo sapiens, Table 6.
The test system of data set [3] is leukemia cancer cells (AML-2). Description: IC50 in leukemia cancer cells. It is filed as cell-based. The settings on record: Table 6.
The mark [4] stands for this setting: remaining activity, listed as SH-05-07.

“Also recorded” adds a separate entry of the source. Bounds are passed on as bounds.

T3 sequence (O60674 whole entry): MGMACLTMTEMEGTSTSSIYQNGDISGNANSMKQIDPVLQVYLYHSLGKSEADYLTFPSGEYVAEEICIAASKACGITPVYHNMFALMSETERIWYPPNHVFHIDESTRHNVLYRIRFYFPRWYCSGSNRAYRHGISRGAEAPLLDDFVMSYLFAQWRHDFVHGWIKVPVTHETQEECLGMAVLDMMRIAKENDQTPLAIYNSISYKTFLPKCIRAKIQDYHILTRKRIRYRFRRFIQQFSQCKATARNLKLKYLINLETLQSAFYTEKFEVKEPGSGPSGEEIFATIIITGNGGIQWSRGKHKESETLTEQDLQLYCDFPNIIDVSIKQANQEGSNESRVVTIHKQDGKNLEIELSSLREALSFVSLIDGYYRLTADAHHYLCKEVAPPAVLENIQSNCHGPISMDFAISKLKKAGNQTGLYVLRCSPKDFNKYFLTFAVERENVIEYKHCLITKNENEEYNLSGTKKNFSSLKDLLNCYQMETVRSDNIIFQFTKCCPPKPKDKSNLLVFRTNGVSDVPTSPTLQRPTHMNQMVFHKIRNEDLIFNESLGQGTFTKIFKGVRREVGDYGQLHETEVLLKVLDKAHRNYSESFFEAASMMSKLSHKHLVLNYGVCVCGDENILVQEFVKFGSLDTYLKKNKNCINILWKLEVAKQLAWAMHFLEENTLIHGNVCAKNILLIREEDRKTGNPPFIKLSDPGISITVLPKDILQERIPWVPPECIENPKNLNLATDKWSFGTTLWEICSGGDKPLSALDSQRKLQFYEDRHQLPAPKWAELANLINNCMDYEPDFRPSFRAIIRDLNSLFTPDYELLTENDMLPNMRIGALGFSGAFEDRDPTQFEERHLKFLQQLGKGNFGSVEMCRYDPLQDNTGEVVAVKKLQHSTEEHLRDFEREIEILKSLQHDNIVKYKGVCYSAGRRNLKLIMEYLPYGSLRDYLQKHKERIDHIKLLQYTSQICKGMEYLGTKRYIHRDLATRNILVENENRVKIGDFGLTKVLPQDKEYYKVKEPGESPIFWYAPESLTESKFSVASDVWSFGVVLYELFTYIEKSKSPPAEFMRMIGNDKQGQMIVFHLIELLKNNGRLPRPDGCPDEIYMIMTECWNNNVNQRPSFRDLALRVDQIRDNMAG
T2 sequence (P27361 whole entry): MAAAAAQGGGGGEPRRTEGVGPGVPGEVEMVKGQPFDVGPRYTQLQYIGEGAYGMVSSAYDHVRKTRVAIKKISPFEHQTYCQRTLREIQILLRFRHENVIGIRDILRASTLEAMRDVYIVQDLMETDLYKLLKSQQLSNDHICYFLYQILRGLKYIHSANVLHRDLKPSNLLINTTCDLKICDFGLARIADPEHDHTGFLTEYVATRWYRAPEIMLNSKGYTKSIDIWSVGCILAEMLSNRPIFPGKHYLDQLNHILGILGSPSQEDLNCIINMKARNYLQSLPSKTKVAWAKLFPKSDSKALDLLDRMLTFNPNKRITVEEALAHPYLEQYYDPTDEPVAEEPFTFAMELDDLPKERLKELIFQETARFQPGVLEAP

For `CN(CC(=O)N(Cc1ccc(C2CCCCC2)cc1)c1ccc(C(=O)NO)cc1)S(=O)(=O)c1c(F)c(F)c(F)c(F)c1F` [Compound 32, 4-(N-(4-cyclohexylbenzyl)-2-(2,3,4,5,6-pentafluoro-N-methylphenylsulfonamido)acetamido)-N-hydroxybenzamide], the concentration for half-maximal inhibition (IC50) with BTSC68EF was about 1.01 µM; with 147EF, 0.588 µM; in the data set on BTSCs, 0.1 to 3.8 µM; in data set [2], under 1 µM; in data set [3], under 1 µM. Besides, the EC50 with BTSCs fell in the range of 0.066 to 1.15 µM. In addition, the “toxicity in normal human cells” value in [1] is listed as “minimal toxicity”. In addition, in the data set on pSTAT3 (Y705) (Western blot, BTSCs), the “suppression of pSTAT3 (Y705)” value is “most suppression of pSTAT3 (Y705)”. For the same compound, the remaining activity at 5 µM is 94.6% on AKT1, 110% on ERK1 and 67.1% at JAK2. Also, the “% Enzyme activity relative to DMSO (control), AKT1” value at AKT1 (setting [4]) worked out at 92.09%. The “% Enzyme activity relative to DMSO (control), ERK1” value at ERK1 (setting [4]) was 106.21%. Besides, at JAK2 (setting [4]), the “% Enzyme activity relative to DMSO (control), JAK2” value came out at 61.26%.
In the case of `CN(CC(=O)N(Cc1ccc(C2CCCCC2)cc1)c1ccc(C(=O)O)cc1)S(=O)(=O)c1c(F)c(F)c(F)c(F)c1F` [Compound 31, 4-(N-(4-cyclohexylbenzyl)-2-(2,3,4,5,6-pentafluoro-N-methylphenylsulfonamido)acetamido)benzoic acid], the IC50 was 0.531 µM with BTSC68EF; 0.315 µM in the data set with 147EF; 0.1 to 3.8 µM in the data set with BTSCs; under 1 µM in [2]; under 1 µM in data set [3]. The EC50 with BTSCs is 0.066 to 1.15 µM. Further, the “toxicity in normal human cells” value in [1] is listed as “minimal toxicity; also recorded: no toxicity”. Moreover, the pSTAT3 inhibition potency result in the data set with pSTAT3 (Y705) (0, 0.1, 0.5, 1.0 and 5.0 μM, Western blot) was “concentration-dependant decreases in pSTAT3 levels”. Further, the pSTAT3 signalling result in the data set with pSTAT3 (Y705) (500 nM, Western blot, BTSCs) was “completely silenced pSTAT3 signalling”. Further, the “suppression of pSTAT3 (Y705)” value with pSTAT3 (Y705) (Western blot, BTSCs) is given as “most suppression of pSTAT3 (Y705)”. For the same compound, the “pSTAT3 suppression, comparative Western blot” value in the data set on pSTAT3 (Y705) (BTSC 73M, 1 μM inhibitor) is on record as “equipotent pSTAT3 suppression”. Besides, the remaining activity at 5 µM at AKT1 was found to be 92.1%; on ERK1, 111%; at JAK2, 62%.
